Data from publication PMC10451032 (ACS Central Science, 2023).

Tests used:
[1] = system: triple mutant L50F/E166A/L167F; conditions: cited from earlier work
[2] = system: rNsp5^WT recombinant SARS-CoV-2; assay: microbe, parasite or virus in culture; assay type: cell-based; conditions: Severe acute respiratory syndrome coronavirus 2
[3] = system: triple mutant L50F/E166A/L167F; conditions: cited from earlier work; remark: listed apart in the source

For `CC(C)(C)[C@H](NC(=O)C(F)(F)F)C(=O)N1C[C@H]2[C@@H]([C@H]1C(=O)N[C@H](C#N)C[C@@H]1CCNC1=O)C2(C)C` [nirmatrelvir], the “IC50 increase in the enzymatic assay” value [1] is listed as 72 fold, the EC50 [2] is listed as 25.5 nM and the “EC50 increase in the antiviral assay” value [3] is listed as 51 fold.
